Laboratory results as given in patent EP4678638A1, “NEW E3 UBIQUITIN LIGASE LIGAND, PROTEIN DEGRADATION AGENT AND USE THEREOF” (priority 2023, dated 2024).
Where two headings read alike, the source gives them in different places.

Experiments:
Assay type in all cases: cell-based, Human
PC-9 = assay: CCK-8 proliferation, PC-9; conditions: read-out: Inhibitory activity (IC50) on tumor cell proliferation, PC-9
Procedure, shortened: (§1)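 CCK-8 viability readout; IC50 from growth-inhibition curve fitting. Cells plated, dosed 24h later with a 10-point series, top 10µM, 5-fold steps. Culture at 37°C, 5% CO2.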

H1975 = assay: CCK-8 proliferation, NCI-H1975 (H1975); conditions: read-out: Inhibitory activity (IC50) on tumor cell proliferation, H1975
Procedure, shortened: as §1

[1] = test system: H1975-1µM Osimertinib cells; assay: CCK-8 proliferation, osimertinib-resistant H1975 cells
Description: (§2) The tumor cells used herein were cultured in a cell culture medium listed in table A1 at 37°C in an incubator with 5% CO2. Prior to experimentation, all cell lines used were correctly identified by STR profiling, and tested negative for mycoplasma contamination using a mycoplasma detection kit through routine screenings. Table A1. Tumor cells and cell culture medium used in the present disclosure
(§3) IC50 values of the compounds of the present disclosure (including the compounds in Table 1, and compounds of examples) were measured using the Meilun Cell Counting Kit-8 kit from Dalian Meilun Biotech Co., Ltd. Assay details are as follows: tumor cells were seeded in a 96-well plate at a density listed in Table A2. After 24h, 100 µL of the inoculated cells were treated with 0.5µL of the compounds of the present disclosure (including the compounds in Tables 1 and 2, and compounds of examples) at 10 different successively decreasing concentrations (starting at the highest concentration of 10µM; 5-fold serial dilutions). After the cells were treated with the compounds of the present disclosure for a period of time, the cell viability detection reagent was added to the culture medium for cell viability assessment according to the instructions provided with the CCK-8 kit. […] The growth inhibition of the compounds of the present disclosure on cells was plotted by Prism Graphpad software, and the IC50 values of the compounds of the present disclosure were calculated therefrom. […] Seeding protocol and treatment time for tumor cells

HCC827 = assay: CCK-8 proliferation, HCC827; conditions: read-out: Inhibitory activity (IC50) on tumor cell proliferation, HCC827
Description: as §2, §3

EGFR = assay: Western blot degradation of EGFR (H1975 Cell); conditions: Table D2
Procedure, shortened: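 Degradation is assessed by immunoblotting lysates of treated cells. Target bands are quantified by grayscale and normalised to an internal control, so degradation rate equals 100% minus % remaining.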

[2] = Homo sapiens, PC-9, CCK-8, 96 hours
[3] = Homo sapiens, NCI-H1975, CCK-8, osimertinib-resistant H1975 cells obtained by treating H1975 cells with 1 µM Osimertinib for 3 months, read-out: Inhibitory activity (IC50) on tumor cell proliferation, H1975-1µm Osimertinib
[4] = Homo sapiens, HCC827, CCK-8, 96 hours
[5] = Homo sapiens, NCI-H1975, CCK-8, 96 hours

IC50 (PC-9; [2])	IC50 [1, 3]	IC50 (HCC827; [4])	IC50 (H1975; [5])	Structure (SMILES)	Degradation of substrate protein EGFR (substrate protein remaining %) (EGFR)	other results
				COc1cc(N2CCC(N3CCN(CCC#Cc4cccc5c4CN(C4CCC(=O)NC4=O)C5=O)CC3)CC2)ccc1Nc1ncc(Cl)c(Nc2ccccc2P(C)(C)=O)n1 (stereo not drawn) [HJM-561, reference compound]		IC50 (PC-9; CCK-8, 96 hours): 100 to 500 nM; IC50 (H1975; CCK-8, 96 hours): 50 to 100 nM; IC50 ([1]; CCK-8, osimertinib-resistant H1975 cells obtained by treating H1975 cells with 1 µM Osimertinib for 3 months, read-out: Inhibitory activity (IC50) on tumor cell proliferation, H1975-1µm Osimertinib): 1000 to 5000 nM; IC50 (HCC827; CCK-8, 96 hours): 500 to 1000 nM
100 to 500 nM	500 to 1000 nM	100 to 500 nM		CC(C)n1nc(N2CCC(N(C)Cc3ccc(N4CCC(=O)NC4=O)cc3)CC2)c2cnc(Nc3ccnc(-c4cnn(S(=O)(=O)C5CC5)c4)n3)cc21 [GT-06021, 1-(4-(((1-(6-((2-(1-(cyclopropylsulfonyl)-1H-pyrazol-4-yl)pyrimidin-4-yl)amino)-1-isopropyl-1H-pyrazolo[4,3-c]pyridin-3-yl)piperidin-4-yl)(methyl)amino)methyl)phenyl)dihydropyrimidine-2,4(1H,3H)-dione]	A (A is defined as 0% ≤ substrate protein remaining % ≤ 80%)	
50 to 100 nM	100 to 500 nM	100 to 500 nM	10 to 50 nM	COc1cc(N2CCC(N(C)Cc3cccc(N4CCC(=O)NC4=O)c3)CC2)c(C)cc1Nc1ncc(Br)c(Nc2ccc3nccnc3c2P(C)(C)=O)n1 [GT-04214, 1-(3-(((1-(4-((5-bromo-4-((5-(dimethylphosphoryl)quinoxalin-6-yl)amino)pyrimidin-2-yl)amino)-5-methoxy-2-methylphenyl)piperidin-4-yl)(methyl)amino)methyl)phenyl)dihydropyrimidine-2,4(1H,3H)-dione]	A (A is defined as 0% ≤ substrate protein remaining % ≤ 80%)	
50 to 100 nM	100 to 500 nM	100 to 500 nM	100 to 500 nM	COc1cc(N2CCN(Cc3ccc(N4CCC(=O)NC4=O)nc3)CC2)c(C)cc1Nc1ncc(Br)c(Nc2ccc3nccnc3c2P(C)(C)=O)n1 [GT-05947, 1-(5-((4-(4-((5-bromo-4-((5-(dimethylphosphoryl)quinoxalin-6-yl)amino)pyrimidin-2-yl)amino)-5-methoxy-2-methylphenyl)piperazin-1-yl)methyl)pyridin-2-yl)dihydropyrimidine-2,4(1H,3H)-dione]	A (A is defined as 0% ≤ substrate protein remaining % ≤ 80%)	
100 to 500 nM	500 to 1000 nM	100 to 500 nM	50 to 100 nM	COc1cc(N2CCC(N(C)Cc3ccc(C4CCC(=O)NC4=O)cc3)CC2)c(C)cc1Nc1ncc(Br)c(Nc2ccc3nccnc3c2P(C)(C)=O)n1 (stereo not drawn) [GT-03930, 3-(4-(((1-(4-((5-bromo-4-((5-(dimethylphosphoryl)quinoxalin-6-yl)amino)pyrimidin-2-yl)amino)-5-methoxy-2-methylphenyl)piperidin-4-yl)(methyl)amino)methyl)phenyl)piperidine-2,6-dione]		
100 to 500 nM	500 to 1000 nM			COc1cc(N2CCC(N(C)Cc3ccc(N4CCC(=O)NC4=O)cc3)CC2)c(C)cc1Nc1ncc(Br)c(Nc2ccc3nccnc3c2P(C)(C)=O)n1 [GT-05951, 1-(4-(((1-(4-((5-bromo-4-((5-(dimethylphosphoryl)quinoxalin-6-yl)amino)pyrimidin-2-yl)amino)-5-methoxy-2-methylphenyl)piperidin-4-yl)(methyl)amino)methyl)phenyl)dihydropyrimidine-2,4(1H,3H)-dione]	A (A is defined as 0% ≤ substrate protein remaining % ≤ 80%)	
				C=CC(=O)Nc1cc(Nc2nccc(-c3cn(C)c4ccccc34)n2)c(OC)cc1N(C)CCN(C)C [osimertinib, reference compound]		IC50 (PC-9; Homo sapiens, PC-9, 96 h): 10 to 50 nM; IC50 (H1975; Homo sapiens, NCI-H1975, 96 h): 100 to 500 nM; IC50 ([1]; Homo sapiens, NCI-H1975, read-out: Inhibitory activity (IC50) on tumor cell proliferation, H1975-1µm Osimertinib): > 10000 nM; IC50 (HCC827; Homo sapiens, HCC827, 96 h): 10 to 50 nM
50 to 100 nM	100 to 500 nM	50 to 100 nM	50 to 100 nM	COc1cc(N2CCC(N3CCN(Cc4cccc(N5CCC(=O)NC5=O)c4)CC3)CC2)c(C)cc1Nc1ncc(Br)c(Nc2ccc3nccnc3c2P(C)(C)=O)n1 [GT-04260, 1-(3-((4-(1-(4-((5-bromo-4-((5-(dimethylphosphoryl)quinoxalin-6-yl)amino)pyrimidin-2-yl)amino)-5-methoxy-2-methylphenyl)piperidin-4-yl)piperazin-1-yl)methyl)phenyl)dihydropyrimidine-2,4(1H,3H)-dione]	A (A is defined as 0% ≤ substrate protein remaining % ≤ 80%)	
100 to 500 nM	500 to 1000 nM	500 to 1000 nM		COc1cc(N2CCC(N(C)Cc3ccc(N4CCC(=O)NC4=O)cn3)CC2)c(C)cc1Nc1ncc(Br)c(Nc2ccc3nccnc3c2P(C)(C)=O)n1 [GT-05952, 1-(6-(((1-(4-((5-bromo-4-((5-(dimethylphosphoryl)quinoxalin-6-yl)amino)pyrimidin-2-yl)amino)-5-methoxy-2-methylphenyl)piperidin-4-yl)(methyl)amino)methyl)pyridin-3-yl)dihydropyrimidine-2,4(1H,3H)-dione]	A (A is defined as 0% ≤ substrate protein remaining % ≤ 80%)	
1 to 10 nM	500 to 1000 nM	1 to 10 nM	50 to 100 nM	O=C1CCC(c2ccc(CN3CCN(C4CCN(c5ccc(Nc6ncc7nc(Nc8ccccc8)n(C8CCCC8)c7n6)cc5)CC4)CC3)cc2)C(=O)N1 (stereo not drawn) [GT-05915, 3-(4-((4-(1-(4-((9-cyclopentyl-8-(phenylamino)-9H-purin-2-yl)amino)phenyl)piperidin-4-yl)piperazin-1-yl)methyl)phenyl)piperidine-2,6-dione]	A (A is defined as 0% ≤ substrate protein remaining % ≤ 80%)	
1 to 10 nM	500 to 1000 nM	1 to 10 nM	100 to 500 nM	O=C1CCN(c2ccc(CN3CCN(C4CCN(c5ccc(Nc6ncc7nc(Nc8ccccc8)n(C8CCCC8)c7n6)cc5)CC4)CC3)cc2)C(=O)N1 [GT-05917, 1-(4-((4-(1-(4-((9-cyclopentyl-8-(phenylamino)-9H-purin-2-yl)amino)phenyl)piperidin-4-yl)piperazin-1-yl)methyl)phenyl)dihydropyrimidine-2,4(1H,3H)-dione]	A (A is defined as 0% ≤ substrate protein remaining % ≤ 80%)	
1 to 10 nM	500 to 1000 nM	10 to 50 nM		O=C1CCN(c2ccc(CN3CCN(C4CCN(c5ccc(NC6=NC=C7N=C(Nc8ccccc8)N(C8CCCC8)C7N6)cc5)CC4)CC3)cn2)C(=O)N1 (stereo not drawn) [GT-05942, 1-(5-((4-(1-(4-((9-cyclopentyl-8-(phenylamino)-4,9-dihydro-3H-purin-2-yl)amino)phenyl)piperidin-4-yl)piperazin-1-yl)methyl)pyridin-2-yl)dihydropyrimidine-2,4(1H,3H)-dione]	A (A is defined as 0% ≤ substrate protein remaining % ≤ 80%)	
50 to 100 nM	100 to 500 nM	100 to 500 nM		CC(C)n1nc(N2CCC(N(C)Cc3ccc(C4CCC(=O)NC4=O)cc3)CC2)c2cnc(Nc3ccnc(-c4cnn(S(=O)(=O)C5CC5)c4)n3)cc21 (stereo not drawn) [GT-06020, 3-(4-(((1-(6-((2-(1-(cyclopropylsulfonyl)-1H-pyrazol-4-yl)pyrimidin-4-yl)amino)-1-isopropyl-1H-pyrazolo[4,3-c]pyridin-3-yl)piperidin-4-yl)(methyl)amino)methyl)phenyl)piperidine-2,6-dione]		
100 to 500 nM	100 to 500 nM	100 to 500 nM	100 to 500 nM	COc1cc(N2CCN(Cc3cccc(N4CCC(=O)NC4=O)c3)CC2)c(C)cc1Nc1ncc(Br)c(Nc2ccc3nccnc3c2P(C)(C)=O)n1 [GT-04206, 1-(3-((4-(4-((5-bromo-4-((5-(dimethylphosphoryl)quinoxalin-6-yl)amino)pyrimidin-2-yl)amino)-5-methoxy-2-methylphenyl)piperazin-1-yl)methyl)phenyl)dihydropyrimidine-2,4(1H,3H)-dione]	A (A is defined as 0% ≤ substrate protein remaining % ≤ 80%)	
